Several values for one entry are separate records, joined by “and”; a condition that tells them apart may be missing. Identical values can stand only once. Toxic doses and inconclusive results are not listed.

The subject of this test is BDF1 mice, P388 leukemia ip, median survival T/C. As to the kind of experiment: NCI In Vivo Anticancer Drug Screen. Data for tumor model P388 Leukemia (intraperitoneal) in B6D2F1 (BDF1) mice. The conditions noted are these: endpoint: median survival time, higher = longer survival. In a few lines:
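Survival ratio, drug arm over vehicle arm, in mice with a transplanted tumour.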

Where [1] appears, read: dose: 50.0 mg/kg/injection, schedule: Q01DX009 (ip), vehicle: saline.
Where [2] appears, read: dose: 100.0 mg/kg/injection, schedule: Q01DX009 (ip), vehicle: saline.
Setting [3] is: dose: 200.0 mg/kg/injection, schedule: Q01DX009 (ip), vehicle: saline.
[4] abbreviates: dose: 50.0 mg/kg/injection, schedule: Q04DX003 (ip), vehicle: saline.
The mark [5] stands for this setting: dose: 100.0 mg/kg/injection, schedule: Q04DX003 (ip), vehicle: saline.
Where [6] appears, read: dose: 200.0 mg/kg/injection, schedule: Q04DX003 (ip), vehicle: saline.
Where [7] appears, read: dose: 5.0 mg/kg/injection, schedule: Q01DX010 (ip), vehicle: saline.
Setting [8] is: dose: 50.0 mg/kg/injection, schedule: Q01DX009 (ip), vehicle: saline with Tween-80.
Setting [9] is: dose: 25.0 mg/kg/injection, schedule: Q01DX009 (ip), vehicle: saline.
[10] abbreviates: dose: 25.0 mg/kg/injection, schedule: Q04DX003 (ip), vehicle: saline.

As to `CNc1nc(N)c(N=O)c(Nc2ccc(Br)cc2)n1`, the T/C runs as follows: (dose: 62.5 mg/kg/injection, schedule: Q01DX010 (ip), vehicle: carboxymethylcellulose (CMC)) 105 % of control; (dose: 125.0 mg/kg/injection, schedule: Q01DX010 (ip), vehicle: carboxymethylcellulose (CMC)) 110 % of control; (dose: 250.0 mg/kg/injection, schedule: Q01DX010 (ip), vehicle: carboxymethylcellulose (CMC)) 100 % of control; (dose: 500.0 mg/kg/injection, schedule: Q01DX010 (ip), vehicle: carboxymethylcellulose (CMC)) 100 % of control.
Consider `Cc1[nH]c(=O)[nH]c(=O)c1N(CCF)CCCl`, for which the T/C reads like this: (dose: 5.0 mg/kg/injection, schedule: Q01DX009 (ip), vehicle: Klucel (hydroxypropylcellulose) (HPC)) 150 % of control; (dose: 10.0 mg/kg/injection, schedule: Q01DX009 (ip), vehicle: Klucel (hydroxypropylcellulose) (HPC)) 172 % of control; (dose: 10.0 mg/kg/injection, schedule: Q01DX009 (ip), vehicle: saline) 162 % of control; (dose: 16.5 mg/kg/injection, schedule: Q04DX003 (ip), vehicle: saline with Tween-80) 168 % of control; (dose: 25.0 mg/kg/injection, schedule: Q04DX003 (ip), vehicle: saline with Tween-80) 204 % of control; (dose: 37.5 mg/kg/injection, schedule: Q04DX003 (ip), vehicle: saline with Tween-80) 200 % of control.
In the case of `COc1ccc(C(=O)c2ccccc2)cc1OC`, the T/C is 100 % of control (dose: 100.0 mg/kg/injection, schedule: Q04DX003 (ip), vehicle: Klucel (hydroxypropylcellulose) (HPC)) and 100 % of control (dose: 400.0 mg/kg/injection, schedule: Q04DX003 (ip), vehicle: Klucel (hydroxypropylcellulose) (HPC)).
In the case of `OCc1cncc(F)c1`, the T/C by setting is: under setting [1], 103 % of control; under setting [2], 103 % of control; under setting [3], 103 % of control.
For the compound `O=C(CC(O)(C(F)(F)F)C(F)(F)F)c1cccs1`, the T/C (dose: 132.0 mg/kg/injection, schedule: Q04DX003 (ip), vehicle: saline with Tween-80) is 105 % of control.
Take `COc1c(O)cc2c(c1OC)-c1ccc(OC)c(=O)cc1[C@@H](NC(C)=O)CC2`: the T/C runs as follows: (dose: 0.62 mg/kg/injection, schedule: Q01DX009 (ip), vehicle: saline with Tween-80) 114 % of control; (dose: 0.63 mg/kg/injection, schedule: Q01DX009 (ip), vehicle: saline with Tween-80) 159 % of control; (dose: 1.25 mg/kg/injection, schedule: Q01DX009 (ip), vehicle: saline with Tween-80) 210 % of control; (dose: 2.5 mg/kg/injection, schedule: Q01DX009 (ip), vehicle: saline with Tween-80) 236 % of control and 200 % of control; (dose: 5.0 mg/kg/injection, schedule: Q01DX009 (ip), vehicle: saline with Tween-80) 236 % of control and 222 % of control; (dose: 10.0 mg/kg/injection, schedule: Q01DX009 (ip), vehicle: saline with Tween-80) 210 % of control.
Regarding `CCCP(CCC)c1ccccc1`, the T/C (dose: 25.0 mg/kg/injection, schedule: Q01DX009 (sc), vehicle: olive oil, sesame oil, peanut oil) was 108 % of control; the T/C (dose: 50.0 mg/kg/injection, schedule: Q01DX009 (sc), vehicle: olive oil, sesame oil, peanut oil) is 95 % of control; the T/C (dose: 100.0 mg/kg/injection, schedule: Q01DX009 (sc), vehicle: olive oil, sesame oil, peanut oil) was 95 % of control; the T/C (dose: 100.0 mg/kg/injection, schedule: Q04DX003 (sc), vehicle: olive oil, sesame oil, peanut oil) is 96 % of control; the T/C (dose: 200.0 mg/kg/injection, schedule: Q04DX003 (sc), vehicle: olive oil, sesame oil, peanut oil) was 96 % of control; the T/C (dose: 400.0 mg/kg/injection, schedule: Q01DX009 (sc), vehicle: olive oil, sesame oil, peanut oil) is 92 % of control. The T/C (dose: 400.0 mg/kg/injection, schedule: Q04DX003 (sc), vehicle: olive oil, sesame oil, peanut oil) is 123 % of control.
Turning to `CC(=O)OC1CCC(C(C)(C)C)CC1` (configuration not stated), the T/C is, setting by setting: under setting [4], 95 % of control; under setting [5], 109 % of control; under setting [6], 109 % of control.
Turning to `Cc1n(CC(C)C)c2c([n+]1CC(=O)c1ccc([N+](=O)[O-])cc1)C(=O)c1ccccc1C2=O`, the T/C by setting is: (dose: 1.25 mg/kg/injection, schedule: Q01DX010 (ip), vehicle: saline) 118 % of control; (dose: 2.5 mg/kg/injection, schedule: Q01DX010 (ip), vehicle: saline) 122 % of control; under setting [7], 104 % of control.
`CN1CC2CC(C1)c1cccc(=O)n1C2` (configuration not stated): the T/C runs as follows: under setting [7], 86 % of control; (dose: 10.0 mg/kg/injection, schedule: Q01DX010 (ip), vehicle: saline) 109 % of control; (dose: 20.0 mg/kg/injection, schedule: Q01DX010 (ip), vehicle: saline) 104 % of control; (dose: 40.0 mg/kg/injection, schedule: Q01DX010 (ip), vehicle: saline) 95 % of control.
Take `Nc1cc(Nc2cccc(Cl)c2)nc(N)n1`: under setting [8], the T/C was 86 % of control.
`NC(N)=NC(N)=Nc1cnccn1`: the T/C by setting is: under setting [9], 110 % of control; under setting [10], 100 % of control; under setting [1], 120 % of control; under setting [4], 100 % of control; under setting [2], 120 % of control; under setting [5], 95 % of control.
Take `Cc1[nH]c(=O)[nH]c(=O)c1/C=C/C(=O)NC(CO)CC(C)C` (configuration not stated): the T/C was 108 % of control (dose: 12.5 mg/kg/injection, schedule: Q01DX009 (ip), vehicle: saline); 90 % of control under setting [9]; 107 % of control under setting [10]; 102 % of control under setting [1]; 100 % of control under setting [4]; 91 % of control under setting [2]. Besides, the T/C runs as follows: under setting [5], 91 % of control; under setting [3], 108 % of control; under setting [6], 109 % of control; (dose: 400.0 mg/kg/injection, schedule: Q01DX009 (ip), vehicle: saline) 100 % of control; (dose: 400.0 mg/kg/injection, schedule: Q04DX003 (ip), vehicle: saline) 116 % of control.
Take `CC(=O)O[C@@H]1C[C@@]2(C)[C@@H]3CC=C4[C@@H](C[C@H](O)C(=O)C4(C)C)[C@]3(C)C(=O)C[C@]2(C)[C@H]1[C@@](C)(O)C(=O)/C=C/C(C)(C)OC(C)=O`: the T/C (dose: 12.5 mg/kg/injection, schedule: Q01DX010 (ip), vehicle: carboxymethylcellulose (CMC)) is 109 % of control; the T/C (dose: 25.0 mg/kg/injection, schedule: Q01DX010 (ip), vehicle: carboxymethylcellulose (CMC)) is 122 % of control; the T/C (dose: 50.0 mg/kg/injection, schedule: Q01DX010 (ip), vehicle: carboxymethylcellulose (CMC)) is 95 % of control.
`CC(=O)O.CC(=O)O.[Co+2].[NH-]C(CCC(N)=O)C(=O)O.[NH-]C(CCC(N)=O)C(=O)O` (configuration not stated): the T/C is 87 % of control (dose: 12.5 mg/kg/injection, schedule: Q01DX009 (ip), vehicle: saline with Tween-80); 93 % of control (dose: 25.0 mg/kg/injection, schedule: Q01DX009 (ip), vehicle: saline with Tween-80); 98 % of control under setting [8].
As for `Cc1ccc(N2C(=O)C=CC2=O)cc1`, the T/C was 100 % of control (dose: 5.0 mg/kg/injection, schedule: Q01DX009 (ip), vehicle: saline sonified); 119 % of control (dose: 10.0 mg/kg/injection, schedule: Q01DX009 (ip), vehicle: saline sonified); 100 % of control (dose: 20.0 mg/kg/injection, schedule: Q01DX009 (ip), vehicle: saline sonified).
As for `OCn1cnc2c(SC3CCCC3)ncnc21`, for the setting “dose: 75.0 mg/kg/injection, schedule: Q01DX009 (ip), vehicle: Klucel (hydroxypropylcellulose) (HPC)”, the T/C is 120 % of control.
